In patent US12318372B2, “Formulations with enhanced SN-38 solubility and oral absorption” (TaiRx Inc., priority 2021, dated 2025):
Values joined by “and” are separate entries in the source; they are usually repeats but may differ in a detail not shown here. Identical values can stand only once. “Also recorded” adds a separate entry of the source. Counter-ions that a name gives are not always drawn. Like-named read-outs stand apart in the source and are kept apart here.

Key:
[1] = system: HCT-116 colon cancer cells; assay: Study #1 orthotopic HCT-116 xenograft efficacy; format: in vivo, mouse
[2] = cited from earlier work
[3] = guinea pig; cited from earlier work
[4] = rabbit; cited from earlier work
[5] = cited from earlier work; remark: listed apart in the source
[6] = cited from earlier work; remark: listed apart in the source
[7] = system: HCT-116 colon cancer cells; assay: Study #2 follow up orthotopic HCT-116 xenograft efficacy; format: in vivo, female BALB/c nude mice; settings: 25.9 mg/kg i.v. BIW x 6 doses
[8] = system: HCT-116 colon cancer cells; format: in vivo; settings: 25.9 mg/kg i.v. Q4D x 3 wks
[9] = SN-38 solubility at saturation in excipients and excipient mixtures (HPLC); format: physicochemical
Description: The saturation is obtained by adding gradually an excess of active ingredient (maximum target being 50 mg/mL) to a given volume of test medium. […]
The supernatant is then isolated, diluted in a solvent mixture allowing its injection into the chromatographic system. The concentration in solution for each medium is determined by HPLC (external standardization).

[10] = SN-38 content of NMP/VitE TPGS/polymer gels (HPLC); format: physicochemical
Description: For HPC, both above tested percentages (2 and 5%) will be further tested with SN-38. […] This starting solution is prepared by over stirred 24 hours at 20° C. and then filtered before being used for into polymer solubilization.
The three polymers of interest (HPMC E4M, HPMC E10M, and HPC Klucel) are weighed (according to the above selected percentages) and added for solubilization and under stirring onto the SN-38 solution in NMP/VitE TPGS 50/20 mixture. After 24 h stirring at 20° C., the 3 samples are visually observed, and their SN-38 content is assessed by HPLC (after dilution in an appropriate solvent).

[11] = Visual SN-38 solubilization in PLGA/NMP mixtures; format: physicochemical; settings: PLGA (75:25):NMP mixture at mass ratio 1:2
Description: SN-38 solubilization in these two PLGA/NMP solution mixtures is then tested with a SN-38 starting concentration of 20 mg/g and then decreasing the tested concentration if needed. Table 13 presents the results of macroscopic observation of tentative SN-38 solubilization in PLGA/NMP mixtures

[12] = times more cytotoxic than CPT-11; cited from earlier work

Structure (SMILES): CCc1c2c(nc3ccc(OC(=O)N4CCC(N5CCCCC5)CC4)cc13)-c1cc3c(c(=O)n1C2)COC(=O)[C@]3(O)CC [CPT-11, irinotecan]
- Tumor weights on Day 34 Geometric mean ([1]; 50 mg/kg i.p. Q4D x 3 wks): 24.9 mg
- Tumor weights on Day 34 TGI % ([1]; 50 mg/kg i.p. Q4D x 3 wks): 85%
- aqueous solubility ([2]; HCl salt, in water): 25 mM
- antigenic potential [3]: has shown antigenic potential
- antigenic potential [4]: has shown antigenic potential
- irinotecan remained unhydrolyzed ([5]; humans, at the end of a 24-hour infusion): 33-66%
- bioconversion to SN-38 ([5]; in humans): ~5%
- dogs showing emesis ([6]; 20 mg/kg i.v.): five of six
- mortality ([6]; dogs, 40 mg/kg): the two dogs died 3 and 6 minutes later
- time to emesis ([6]; dogs, 40 mg/kg): 1 min

Structure (SMILES): CCc1c2c(nc3ccc(OC(=O)N4CCC(N5CCCCC5)CC4)cc13)-c1cc3c(c(=O)n1C2)COC(=O)[C@]3(O)CC [Irinotecan HCL trihydrate, Irinotecan HCL Trihydrate]
- Tumor weights on Day 34 Geometric mean ([1]; 20.8 mg/kg i.v. BIW x 3 wks): 171.0 mg
- Tumor weights on Day 34 TGI % ([1]; 20.8 mg/kg i.v. BIW x 3 wks): 78%
- Tumor weights on Day 32 Geometric mean [7]: 134.0 mg
- Tumor weights on Day 32 TGI % [7]: 84%
- Tumor weights on Day 34 Geometric mean [8]: 428.6 mg
- Tumor weights on Day 34 TGI % [8]: 60%

Structure (SMILES): CCc1c2c(nc3ccc(O)cc13)-c1cc3c(c(=O)n1C2)COC(=O)[C@]3(O)CC [SN-38, 7-Ethyl-10-hydroxy-camptothecin]
- SN-38 solubility ([9]; in Cremophor EL at 30% in water, 20° C.): 0.017 mg/g
- SN-38 solubility ([9]; in Labrafil M1944CS, 20° C.): 0.054 mg/g
- SN-38 solubility ([9]; in NMP/VitE TPGS (50/20 w/w), 20° C.): 18.51 mg/g
- SN-38 solubility ([9]; in NMP/VitE TPGS/Capmul MCM/Tween 20 (50/20/10/20 w/w)): 7.57 mg/g
- SN-38 solubility ([9]; in NMP/VitE TPGS/GELUCIRE (50/20/20), 20° C.): 9.2 mg/g and 9.25 mg/g
- SN-38 solubility ([9]; in NMP/VitE TPGS/Isopropyl myristate/Solutol HS15 (50/20/10/20 w/w)): 9.04 mg/g
- SN-38 solubility ([9]; in NMP/VitE TPGS/KOLLIDON VA64 (50/20/20), 20° C.): 15.6 mg/g and 15.65 mg/g
- SN-38 solubility ([9]; in NMP/VitE TPGS/LUTROL F127 (50/20/20), 25° C.): 10.0 mg/g and 10.02 mg/g
- SN-38 solubility ([9]; in NMP/VitE TPGS/Labrafac Lipophile WL1349/Lauroglycol 90 (50/20/10/20 w/w)): 2.76 mg/g
- SN-38 solubility ([9]; in NMP/VitE TPGS/Mygliol 812/Propylene glycol (50/20/10/20 w/w)): 5.95 mg/g
- SN-38 solubility ([9]; in NMP, 24 h stirring at 20° C.): 42 mg/g
- SN-38 solubility ([9]; in Propylene glycol, 20° C.): 1.15 mg/g
- SN-38 solubility ([9]; in VitE TPGS at 20% in water, 20° C.): ≈0.01 mg/g
- SN-38 solubility ([9]; in all other tested media (other than NMP, propylene glycol, Capmul MCM)): lower than 0.054 mg/g
- SN-38 content calculated by HPLC ([10]; 2% HPC (vs NMP) in NMP/VitE TPGS (50 w/20 w)): 14.32 mg/g
- SN-38 content calculated by HPLC ([10]; 4% HPMC E4M (vs NMP) in NMP/VitE TPGS (50 w/20 w)): 14.03 mg/g
- SN-38 content calculated by HPLC ([10]; 4% HPMC E10M (vs NMP) in NMP/VitE TPGS (50 w/20 w)): 14.00 mg/g
- SN-38 content calculated by HPLC ([10]; 5% HPC (vs NMP) in NMP/VitE TPGS (50 w/20 w), 24 h stirring at 20° C.): 13.95 mg/g
- SN-38 precipitation on addition of gelling polymers ([10]; HPMC E4M, HPMC E10M or HPC added onto 15 mg/g SN-38 solution in NMP/VitE TPGS 50/20): No SN-38 precipitation is observed; also recorded: without precipitation of SN-38
- SN-38 content calculated by HPLC ([10]; No polymer in NMP/VitE TPGS (50 w/20 w), filtered 15 mg/g starting solution): 14.47 mg/g
- Concentration at which SN-38 is soluble [11]: 10 mg/g
- solubility in water ([2]; Zhang et al. 2004): < 40 µg/mL
- solubility (S) ([2]; background statement b6): < 10 µg/mL
- cytotoxicity relative to CPT-11 [12]: 200-2000 times
- antigenic potential [3]: no antigenic potential
- emesis or nausea ([6]; dogs, 11.6 mg/kg i.v.): no emesis or nausea was noted
